Data reported in publication PMC9908614 (Frontiers in Microbiology, 2023).

How the values were obtained:
EphH (Rv3338) [1] = target: T1, EphH (Rv3338) (Mycobacterium tuberculosis, UniProt O53388); format: biochemical
EphH (Rv3338) [2] = target: T1, EphH (Rv3338); experiment: biochemical; conditions: read-out: rEphH
[3] = target: T2, sEH (human recombinant sEH) (Homo sapiens, UniProt P34913); experiment: fluorescence hydrolysis assay, Michaelis-Menten (Km); format: biochemical; conditions: cited from earlier work
T2 construct: gene EPHX2
T2 sequence (P34913 1-555): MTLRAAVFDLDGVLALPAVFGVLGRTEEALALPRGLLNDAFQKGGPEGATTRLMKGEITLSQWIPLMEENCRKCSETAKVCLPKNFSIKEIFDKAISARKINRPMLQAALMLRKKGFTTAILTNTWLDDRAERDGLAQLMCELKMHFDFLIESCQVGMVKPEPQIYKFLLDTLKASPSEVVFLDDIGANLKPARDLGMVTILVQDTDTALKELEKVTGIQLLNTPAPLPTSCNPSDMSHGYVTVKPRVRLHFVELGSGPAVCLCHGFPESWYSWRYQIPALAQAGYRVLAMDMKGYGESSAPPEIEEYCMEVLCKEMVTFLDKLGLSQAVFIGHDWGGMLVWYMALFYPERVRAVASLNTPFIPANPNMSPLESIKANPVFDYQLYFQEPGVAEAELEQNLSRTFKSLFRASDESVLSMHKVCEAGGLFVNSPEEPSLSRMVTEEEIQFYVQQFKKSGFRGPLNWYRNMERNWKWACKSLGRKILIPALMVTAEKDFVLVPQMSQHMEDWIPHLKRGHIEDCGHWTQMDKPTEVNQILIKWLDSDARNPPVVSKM

[4] = test system: COc1ccc2cc(C(C#N)OC(=O)CC3OC3c3ccccc3)ccc2c1; experiment: purified protein

T1 sequence (O53388 whole entry): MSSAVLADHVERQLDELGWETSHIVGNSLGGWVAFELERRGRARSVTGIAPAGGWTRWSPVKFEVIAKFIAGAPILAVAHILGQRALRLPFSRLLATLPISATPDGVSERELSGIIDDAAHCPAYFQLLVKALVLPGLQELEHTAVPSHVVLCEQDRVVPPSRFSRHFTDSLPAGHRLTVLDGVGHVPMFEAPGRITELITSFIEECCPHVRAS

With `c1ccc(C2CO2)cc1` (racemic) [styrene oxide] the “colorimetric Red assay (NaIO4/adrenaline) with purified rEphH” value (EphH (Rv3338) [1]) was “EphH activity was also determined with another EH substrate, styrene oxide”.

In the case of `O=C(O)CCCCCCCCCCCNC(=O)NC12CC3CC(CC(C3)C1)C2` [AUDA, 12-(3-adamantane-1-yl-ureido)-dodecanoic acid], the IC50 (EphH (Rv3338) [2]) is reported as 9.4 ± 0.5 nM.

For `COc1ccc2cc(C(C#N)OC(=O)CC3OC3c3ccccc3)ccc2c1` (stereo not drawn) [PHOME, (3-phenyl-oxiranyl)-acetic acid cyano-(6-methoxynaphthalen-2-yl)-methyl ester], the Km [3] is listed as 26.2 µM.

Molecule “EphH (Rv3338) (Mycobacterium tuberculosis H37Rv)” has a Km [4] of 21.03 µM, a Vmax [4] of 1.027 µmol/min and a kcat/Km [4] of 870000 M⁻¹ s⁻¹.
